From patent publication US20240083861A1, “HSD17B13 INHIBITORS AND USES THEREOF” (FL2022-001, Inc., priority 2020, published 2024)

Each compound was assayed against T1, Recombinant human HSD17B13 enzyme (Homo sapiens, UniProt Q7Z5P4) (assay: HSD17b13 NAD(P)H-Glo biochemical assay). Conditions: 50 uM estradiol, 1 mM NAD+, NAD(P)H-Glo luminescence; read-out: HSD17β13 IC50.
T1 sequence (Q7Z5P4 20-300): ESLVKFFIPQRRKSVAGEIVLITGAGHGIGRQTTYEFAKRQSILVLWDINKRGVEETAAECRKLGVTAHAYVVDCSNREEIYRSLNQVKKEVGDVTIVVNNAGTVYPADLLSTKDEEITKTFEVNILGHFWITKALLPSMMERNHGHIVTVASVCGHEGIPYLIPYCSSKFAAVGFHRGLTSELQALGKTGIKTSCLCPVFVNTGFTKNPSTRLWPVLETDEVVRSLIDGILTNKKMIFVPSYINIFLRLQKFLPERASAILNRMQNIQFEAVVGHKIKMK
Summary of the method: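 Recombinant human HSD17B13 in 20 mM Tris pH7.4 with 0.002% Tween-20 and 0.02% BSA was preincubated with inhibitor for 20 minutes at RT. The reaction ran 3 hours at 37° C with 50 uM estradiol and 1 mM NAD+ (final). NADH formed was detected by NAD(P)H-Glo luminescence after 1 hour at RT.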

IC50 [µM] | SMILES
0.1 to 1 | Cn1nc(-c2cc(C(F)(F)F)c(F)c(O)c2F)c2cnc(N3CCC(C(N)=O)CC34CC4)cc21 (stereo not drawn) [Compound 9.85, 4-(3-(2,4-Difluoro-3-hydroxy-5-(trifluoromethyl)phenyl)-1-methyl-1H-pyrazolo[4,3-c]pyridin-6-yl)-4-azaspiro[2.5]octane-7-carboxamide]
< 0.1 | COC1(CN(C)c2cc3c(cn2)c(-c2cc(C(F)(F)F)c(F)c(O)c2F)nn3C)CCC1 [Compound 9.86, 2,6-Difluoro-3-(6-(((1-methoxycyclobutyl)methyl)(methyl)amino)-1-methyl-1H-pyrazolo[4,3-c]pyridin-3-yl)-5-(trifluoromethyl)phenol]
< 0.1 | CC(=O)N1CCN(c2cc3c(cn2)c(-c2cc(C(F)(F)F)c(F)c(O)c2F)nn3C)C2(CC2)C1 [Compound 9.87, 1-(4-(3-(2,4-Difluoro-3-hydroxy-5-(trifluoromethyl)phenyl)-1-methyl-1H-pyrazolo[4,3-c]pyridin-6-yl)-4,7-diazaspiro[2.5]octan-7-yl)ethanone]
< 0.1 | Cn1nc(-c2cc(C(F)(F)F)c(F)c(O)c2F)c2cnc(N3CCOC4(CCS(=O)(=O)CC4)C3)cc21 [Compound 9.88, 4-(3-(2,4-Difluoro-3-hydroxy-5-(trifluoromethyl)phenyl)-1-methyl-1H-pyrazolo[4,3-c]pyridin-6-yl)-1-oxa-9-thia-4-azaspiro[5.5]undecane 9,9-dioxide]
< 0.1 | Cn1nc(-c2cc(C(F)(F)F)c(F)c(O)c2F)c2cnc(N3CCOC(C)(C#N)C3)cc21 (stereo not drawn) [Compound 9.89, 4-(3-(2,4-Difluoro-3-hydroxy-5-(trifluoromethyl)phenyl)-1-methyl-1H-pyrazolo[4,3-c]pyridin-6-yl)-2-methylmorpholine-2-carbonitrile]
< 0.1 | Cn1nc(-c2cc(C(F)(F)F)c(F)c(O)c2F)c2cnc(N3C[C@H]4CC[C@@H](C3)O4)cc21 [Compound 9.90, 3-(6-(cis-8-Oxa-3-azabicyclo[3.2.1]octan-3-yl)-1-methyl-1H-pyrazolo[4,3-c]pyridin-3-yl)-2,6-difluoro-5-(trifluoromethyl)phenol]
< 0.1 | Cn1nc(-c2cc(C(F)(F)F)c(F)c(O)c2F)c2cnc(N3CCN(c4ccccc4)C(=O)C3)cc21 [Compound 9.91, 4-(3-(2,4-Difluoro-3-hydroxy-5-(trifluoromethyl)phenyl)-1-methyl-1H-pyrazolo[4,3-c]pyridin-6-yl)-1-phenylpiperazin-2-one]
0.1 to 1 | Cn1nc(-c2cc(C(F)(F)F)c(F)c(O)c2F)c2cnc(N3CCNC(=O)C3)cc21 [Compound 9.92, 4-(3-(2,4-Difluoro-3-hydroxy-5-(trifluoromethyl)phenyl)-1-methyl-1H-pyrazolo[4,3-c]pyridin-6-yl)piperazin-2-one]
< 0.1 | COC12CC(CN(c3cc4c(cn3)c(-c3cc(C(F)(F)F)c(F)c(O)c3F)nn4C)C1)C2 [Compound 9.93, 2,6-Difluoro-3-(6-(1-methoxy-3-azabicyclo[3.1.1]heptan-3-yl)-1-methyl-1H-pyrazolo[4,3-c]pyridin-3-yl)-5-(trifluoromethyl)phenol]
< 0.1 | Cn1nc(-c2cc(C(F)(F)F)c(F)c(O)c2F)c2cnc(NC3CCOCC3)cc21 [Compound 9.94, 2,6-Difluoro-3-(1-methyl-6-((tetrahydro-2H-pyran-4-yl)amino)-1H-pyrazolo[4,3-c]pyridin-3-yl)-5-(trifluoromethyl)phenol]
< 0.1 | CC1COC2(CCC2)CN1c1cc2c(cn1)c(-c1cc(C(F)(F)F)c(F)c(O)c1F)nn2C (stereo not drawn) [Compound 9.95, 2,6-Difluoro-3-(1-methyl-6-(7-methyl-5-oxa-8-azaspiro[3.5]nonan-8-yl)-1H-pyrazolo[4,3-c]pyridin-3-yl)-5-(trifluoromethyl)phenol]
< 0.1 | CN1CCN(c2cc3c(cn2)c(-c2cc(C(F)(F)F)c(F)c(O)c2F)nn3C)C2(CCC2)C1 [Compound 9.96, 2,6-Difluoro-3-(1-methyl-6-(8-methyl-5,8-diazaspiro[3.5]nonan-5-yl)-1H-pyrazolo[4,3-c]pyridin-3-yl)-5-(trifluoromethyl)phenol]
